{
  "source": "patent US8450374B2",
  "about": "“Pan-antagonists for the androgen receptor and androgen receptor mutants associated with anti-androgen withdrawal” (priority 2009, dated 2013)",
  "key": {"AR T877A [1]": {"target": "T1, AR T877A (Homo sapiens, UniProt P10275, T878A)", "T1 sequence (P10275 1-920 T878A)": "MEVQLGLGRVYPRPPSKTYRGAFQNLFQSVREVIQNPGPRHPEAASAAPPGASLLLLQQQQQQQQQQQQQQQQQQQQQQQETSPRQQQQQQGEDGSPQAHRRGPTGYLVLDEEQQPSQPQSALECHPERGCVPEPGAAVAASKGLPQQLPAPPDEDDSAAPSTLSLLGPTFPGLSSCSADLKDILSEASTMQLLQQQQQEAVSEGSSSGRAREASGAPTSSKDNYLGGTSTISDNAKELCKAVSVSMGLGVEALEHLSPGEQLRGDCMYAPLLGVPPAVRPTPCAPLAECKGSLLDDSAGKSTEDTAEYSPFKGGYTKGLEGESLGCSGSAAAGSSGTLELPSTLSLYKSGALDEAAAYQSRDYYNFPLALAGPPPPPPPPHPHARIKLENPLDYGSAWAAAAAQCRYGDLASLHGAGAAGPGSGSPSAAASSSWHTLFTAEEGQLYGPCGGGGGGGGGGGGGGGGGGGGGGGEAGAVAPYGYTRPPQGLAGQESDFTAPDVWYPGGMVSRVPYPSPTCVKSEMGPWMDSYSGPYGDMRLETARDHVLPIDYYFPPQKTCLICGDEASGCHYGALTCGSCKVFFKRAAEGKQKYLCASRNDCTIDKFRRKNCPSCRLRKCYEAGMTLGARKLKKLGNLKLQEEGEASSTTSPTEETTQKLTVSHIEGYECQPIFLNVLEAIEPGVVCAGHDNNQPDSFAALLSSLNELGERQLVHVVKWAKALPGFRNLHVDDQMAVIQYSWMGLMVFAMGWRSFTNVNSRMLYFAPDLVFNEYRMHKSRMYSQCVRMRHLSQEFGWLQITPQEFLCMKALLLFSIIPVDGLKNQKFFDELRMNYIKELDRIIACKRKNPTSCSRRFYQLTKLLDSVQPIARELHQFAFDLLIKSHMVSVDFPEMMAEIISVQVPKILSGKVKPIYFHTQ", "experiment": "Transcription assay (ARE-luciferase reporter) in CV-1 cells, AR T877A", "type": "cell-based", "parameters": "expressed in transfected cells; host or cells: CV-1", "conditions": "for Antagonist efficacy (RLU value at IC50), AR T877A: in competition with 10 nM DHT", "experimental": "Twenty-four hours prior to transfection, CV-1 cells were seeded at a density of 45,000 cells per well in 24-well cell culture plates and grown in phenol red free Dulbecco's Modified Eagle Medium (DMEM) supplemented with 10% cosmic calf serum (COS). ARE-luciferase reporter and Renilla-Luc as the internal standard and a prokaryotic expression vector encoding the wild-type androgen receptor or mutant androgen receptor were transfected with Lipofectamine (Invitrogen) following manufacturer's protocol. Five hours after transfection, media was added containing the appropriate concentrations of ligands. The cells were allowed to incubate for 38 hours before harvesting by passive lysis buffer. Cell extracts were immediately assayed using the Dual Luciferase Assay (Promega) with a Perkin-Elmer Microbeta Luminometer. […] Dose-response data was analyzed by nonlinear regression analysis using GraphPad Prism."}, "AR T877A [2]": {"target": "T1, AR T877A", "experiment": "Competitive binding assay, [3H]DHT, transfected COS-7 cells, AR T877A", "parameters": "expressed in transfected cells; host or cells: COS-7", "conditions": "14 nM [3H]-DHT, read-out: Binding affinity (Ki), AR T877A", "experimental": "(§1) Twenty-four hours prior to transfection, COS-7 cells were seeded at a density of 70,000 cells per well in 24-well cell culture plates and grown in phenol red free Dulbecco's Modified Eagle Medium (DMEM) supplement with 10% cosmic calf serum (CCS). The cells were transfected with a prokaryotic expression vector encoding the wild-type androgen receptor or mutant androgen receptor using Lipofectamine (Invitrogen) following manufacturer's protocol. […] Cells were washed with PBS and harvested in 2% SDS, 10% glycerol, and 10 mM Tris, pH 6.8, and radioactivity determined by scintillation counting."}, "AR W741C": {"target": "T2, AR W741C (Homo sapiens, UniProt P10275, W742C)", "T2 sequence (P10275 1-920 W742C)": "T1 sequence (P10275 1-920 T878A) with W742C, A878T", "experiment": "Competitive binding assay, [3H]DHT, transfected COS-7 cells, AR W741C", "parameters": "expressed in transfected cells; host or cells: COS-7", "conditions": "75 nM [3H]-DHT, read-out: Binding affinity (Ki), AR W741C", "experimental": "as §1"}},
  "note": "Changes are numbered by the printed parent chain.",
  "data": [
    {"compound": "CN(C)CCCOc1cccc(Cc2ccccc2S(=O)(=O)CC(C)(O)C(=O)Nc2ccc(C#N)c(C(F)(F)F)c2)c1", "note": "(centres unmarked) [PAN22]", "values": [
      {"measurement": "IC50", "setting": "AR T877A [1]", "result": "1.8 ± 0.3", "unit": "µM"},
      {"measurement": "Antagonist efficacy (RLU value at IC50), AR T877A", "setting": "AR T877A [1]", "result": "(53% ± 3.8%)"},
      {"measurement": "Ki", "setting": "AR T877A [2]", "result": 1.75, "unit": "µM"},
      {"measurement": "Ki", "setting": "AR W741C", "result": 9.8, "unit": "µM"}
    ]},
    {"compound": "CC(O)(CS(=O)(=O)c1ccccc1-c1ccccc1O)C(=O)Nc1ccc(C#N)c(C(F)(F)F)c1", "note": "(centres unmarked) [PAN41, N-(4-cyano-3-(trifluoromethyl)phenyl)-2-hydroxy-3-(2′-hydroxybiphenyl-2-ylsulfonyl)-2-methylpropanamide]", "values": [
      {"measurement": "IC50", "setting": "AR T877A [1]", "result": "3.9 ± 1.9", "unit": "µM"},
      {"measurement": "Antagonist efficacy (RLU value at IC50), AR T877A", "setting": "AR T877A [1]", "result": "(53% ± 10%)"}
    ]},
    {"compound": "CN(C)CCCOc1cccc(-c2ccccc2S(=O)(=O)CC(C)(O)C(=O)Nc2ccc(C#N)c(C(F)(F)F)c2)c1", "note": "(centres unmarked) [PAN52]", "values": [
      {"measurement": "IC50", "setting": "AR T877A [1]", "result": "4 ± 2.2", "unit": "µM"},
      {"measurement": "Antagonist efficacy (RLU value at IC50), AR T877A", "setting": "AR T877A [1]", "result": "(52% ± 2.5%)"},
      {"measurement": "Ki", "setting": "AR T877A [2]", "result": 4.13, "unit": "µM"},
      {"measurement": "Ki", "setting": "AR W741C", "result": 7.3, "unit": "µM"}
    ]},
    {"compound": "CN(C)CCCOc1ccc(-c2ccccc2S(=O)(=O)CC(C)(O)C(=O)Nc2ccc(C#N)c(C(F)(F)F)c2)cc1", "note": "(centres unmarked) [PAN62]", "values": [
      {"measurement": "IC50", "setting": "AR T877A [1]", "result": "5 ± 3.2", "unit": "µM"},
      {"measurement": "Antagonist efficacy (RLU value at IC50), AR T877A", "setting": "AR T877A [1]", "result": "(56% ± 5.9%)"},
      {"measurement": "Ki", "setting": "AR T877A [2]", "result": 4.3, "unit": "µM"},
      {"measurement": "Ki", "setting": "AR W741C", "result": 2.62, "unit": "µM"}
    ]}
  ]
}
